Patent publication US20150323548A1, “METHODS OF MONITORING THE MODULATION OF THE KINASE ACTIVITY OF FIBROBLAST GROWTH FACTOR RECEPTOR AND USES OF SAID METHODS” (Novartis AG, priority 2008, published 2015)
Read-outs that look alike come from different tables or passages of the source.

Legend:
[1] = Phase I clinical trial in metastatic renal cell carcinoma patients: PK, toxicity, efficacy
FGF23 [2] = test: FGF23 ELISA in plasma of mRCC patients; format: in vivo, human
[3] = test system: phosphorylated and activated FGFR; test: Immunohistochemistry of pFGFR in melanoma tumor biopsy; settings: melanoma patient, 400 mg, cycle 1 Day 15
[4] = test system: FRS2 tyrosine phosphorylation (read-out for FGFR activity); test: Ex vivo FRS2 tyrosine phosphorylation in RT112 tumor xenografts in rats (Western blot); set-up: species or system rat; settings: single oral 10, 25 or 50 mg/kg; tumors dissected 3 h post-treatment
Description: FIG. 12 is a photograph showing the ex vivo analysis of RT112 tumor xenografts. Tumors were dissected 3 h after compound administration. Tumor tissue was lysed and FRS2 tyrosine phosphorylation levels were analysed by western blot using an antibody from Cell Signaling (#3864) that detects FRS2 when phosphorylated on Tyr196. As a loading control, membrane was probed with an antibody from Sigma (#T4026) that detects b-tubulin.
Compound Formulation and Animal Treatment. […] The application volumes were 5 ml/kg.
Ex vivo analysis of RT112 tumor xenografts: RT112 bladder cancer cells express high levels of FGFR3, the activity of which can be monitored in these cells by measuring changes in FRS2 tyrosine phosphorylation, a substrate of the FGFRs. The tumor material was pulverized using a swing mill (RETSCH, either MM2 or MM200). Aliquots of tumor powder (50 mg) were lysed in ice-chilled lysis buffer containing 50 mM Tris pH 7.5, 150 mM NaCl, 1 mM EGTA, 5 mM EDTA, 1% Triton, 2 mM NaVanadate, 1 mM PMSF and protease inhibitors cocktail Roche #11873580001). Lysates were clarified by centrifugation at 12000×g for 15 min and protein concentration was determined using the DC protein assay reagents (Bio Rad #500-0116) and a BSA standard. Total cell lysates were subjected to SDS-PAGE and proteins blotted onto PVDF membranes. […]

FGF23 [5] = test: FGF23 ELISA in serum of wistar rats; format: in vivo, rat; settings: single oral 50 mg/kg; 24 h post administration; p<0.01
Description: Data are presented as means of n=6, ±SD.
Animals. Experiments were performed in female wistar rats furth WF/Ico
The application volumes were 5 ml/kg.
Blood samples were drawn sublingually at 24 h post-compound administration. Plasma, as well as serum samples were prepared from each blood sample.

FGF23 [6] = test: FGF23 ELISA in serum of Rowett rats bearing RT112 xenografts; settings: single oral 10, 25, 50 mg/kg; 24 hours post dosing; p<0.01
Description: FGF23 levels were monitored using the FGF23 ELISA kit from Kainos, catalogue number CY-4000, and are expressed in pg/mL. Data are presented as means of n=4, ±SD. Data were compared by one-way Anova post-hoc Dunnett's versus vehicle.
Animals. Experiments were performed in female Rowett rats Hsd:RH-Foxlrnu. These athymic Nude-Rats were obtained from Harlan (The Netherlands)
Compound Formulation and Animal Treatment. […] Vehicle consisted of acetic acid-acetate buffer (pH 4.6)/PEG300 (2:1 v/v). The application volumes were 5 ml/kg.
Blood and tissue sampling for ex vivo analysis. Blood samples were drawn sublingually at 3 h, 7 h and 24 h post-compound administration. Plasma and as serum were prepared from each blood sample. At the same time points, tumors were dissected and snap frozen in liquid nitrogen.

clinical = settings: human, in vivo, po
Description: (§1) Methods: Patients were treated orally with 200, 300, 400 or 500 mg/day on a once daily continuous dose schedule. […] Plasma samples from 43 patients were collected. […] Plasma FGF23 was evaluated by ELISA

FGF23 [7] = settings: for mean plasma FGF23 increase over baseline: melanoma patients; for Increase of FGF23 levels over basal levels (up to): 400 mg daily
Description: Blood sampling was performed at the indicated day and cycle. FGF23 levels were measured in plasma. The values given for C1D1 are the baseline values.
as §1

CN1CCN(c2ccc3nc(-c4c(N)c5c(F)cccc5[nH]c4=O)[nH]c3c2)CC1 [TKI258]
Preliminary evidence of efficacy (other responses) ([1]; mRCC patients): 4 stable disease and 1 dramatic shrinkage/necrosis of some target lesions | minor response (change at C4) ([1]; one mRCC patient, C4): −17% | peak of FGF23 level (day of cycle 1) (FGF23 [2]; mRCC patients having increased FGF23): ~15 days | increase of FGF23 level compared to the baseline level (FGF23 [2]; mRCC patients having increased FGF23, 500 mg/day): 1.35-1.75 | plasma FGF23 levels (FGF23 [2]; pts from the first 500 mg/day dosing cohort): Induction of plasma FGF23 levels | pFGFR in tumor biopsy (immunohistochemistry) [3]: significant pFGFR inhibition | FRS2 tyrosine phosphorylation in RT112 tumors [4]: inhibited FRS2 tyrosine phosphorylation in a dose-dependent manner | serum levels of FGF23 vs vehicle-treated group (FGF23 [5]): statistically significant increased in serum levels of FGF23 | serum levels of FGF23 vs vehicle-treated group (FGF23 [6]): dose-dependent increased in serum levels of FGF23 | AUC(0-t) (clinical; 400 mg): ~3000 ng·h/mL | AUC(0-t) (clinical; 500 mg): ~4100 ng·h/mL | FGF23 (FGF23 [7]; Patient A, 200 mg daily oral, C1D15): 39.8 pg/mL | FGF23 (FGF23 [7]; Patient A, 200 mg daily oral, C1D26): 24.4 pg/mL | FGF23 (FGF23 [7]; Patient A, 200 mg daily oral, C3D26): 31.8 pg/mL | FGF23 (FGF23 [7]; Patient A, 200 mg daily oral, C6D26): 21.1 pg/mL | FGF23 (FGF23 [7]; Patient A, 200 mg daily oral, C9D26): 39.6 pg/mL | FGF23 (FGF23 [7]; Patient B, 400 mg daily oral, C1D15): 94.1 pg/mL | FGF23 (FGF23 [7]; Patient B, 400 mg daily oral, C3D26): 88.5 pg/mL | FGF23 (FGF23 [7]; Patient B, 400 mg daily oral, C4D26): 141.5 pg/mL | FGF23 (FGF23 [7]; Patient C, 400 mg daily oral, C1D15): 86.5 pg/mL | peak of FGF23 (day in first cycle of treatment) (FGF23 [7]; melanoma and metastatic renal cell carcinoma patients, 400 mg or 500 mg, preliminary observation): ~15 days | mean plasma FGF23 increase over baseline (FGF23 [7]; day 15 of the first treatment cycle): 63% | mean plasma FGF23 increase over baseline (FGF23 [7]; end of the first treatment cycle): 68% | plasma FGF23 increase over baseline (FGF23 [7]; one patient, 400 mg, Cycle 1 Day 15): 98% | plasma FGF23 level (FGF23 [7]; one patient, 400 mg, Cycle 1 Day 15 (baseline level 40 pg/ml)): about 80 pg/ml | Increase of FGF23 levels over basal levels (up to) (FGF23 [7]; patient B): up to 1.96 fold | Increase of FGF23 levels over basal levels (up to) (FGF23 [7]; patient B, listed as TK1258): ≤ 1.96 fold | Increase of FGF23 levels over basal levels (up to) (FGF23 [7]; patient C): ≤ 2.1 fold
